# Data taken from patent US12466822B2, “Heterocyclic compounds as immunomodulators” (Incyte Corporation, priority 2016, dated 2025).
# Biological target: T1, PD-1/PD-L1 protein/protein interaction (recombinant human PD-L1 protein (19-238), recombinant human PD-1 protein (25-167)) (Homo sapiens, UniProt Q9NZQ7)
# T1 construct: Recombinant human PD-L1 protein (19-238) with a His-tag at the C-terminus; purchased AcroBiosystems PD1-H5229 (PD-L1-His); PD1-H5257 (PD-1-Fc)
# Experiment: PD-1/PD-L1 Homogeneous Time-Resolved Fluorescence (HTRF) Binding Assay
# Conditions: 25° C., PBS buffer (pH 7.4), 40 minutes preincubation with inhibitors
# Summary of the method: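 HTRF read-out (665/620 nm) after 60 min at 25 °C with 1 nM Eu anti-human IgG and 20 nM APC anti-His. Beforehand, inhibitors were preincubated 40 min with Fc-PD-1 (25-167, […] as listed) and His-PD-L1 (19-238, 10 nM) in PBS pH 7.4 with Tween-20, BSA, 1% DMSO; IC50 from log-concentration curve.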
# T1 sequence (Q9NZQ7 19-238): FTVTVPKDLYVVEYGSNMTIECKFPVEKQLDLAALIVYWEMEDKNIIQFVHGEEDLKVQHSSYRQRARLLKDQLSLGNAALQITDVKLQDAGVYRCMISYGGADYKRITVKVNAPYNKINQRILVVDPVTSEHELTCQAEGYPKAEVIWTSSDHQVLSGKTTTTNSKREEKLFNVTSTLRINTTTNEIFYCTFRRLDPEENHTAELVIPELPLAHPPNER
row,Structure (SMILES),IC50
1,"Cc1c(NC(=O)c2nc3c(n2C)CCN(C)C3)cccc1-c1cccc(Nc2nccc3cc(CN4CC[C@@H](C(=O)O)C4)cnc23)c1C [Example 46, (R)-1-((8-(3′-(1,5-dimethyl-4,5,6,7-tetrahydro-1H-imidazo[4,5-c]pyridine-2-carboxamido)-2,2′-dimethylbiphenyl-3-ylamino)-1,7-naphthyridin-3-yl)methyl)pyrrolidine-3-carboxylic acid]",≤ 10 nM
2,"Cc1c(Nc2nccc3cc(CN4CC[C@@H](O)C4)cnc23)cccc1-c1cccc(NC(=O)c2nc3c(n2C)CCN(C[C@H]2CC[C@H](C(=O)O)CC2)C3)c1Cl [Example 47, trans-4-((2-(2-chloro-3′-(3-(((R)-3-hydroxypyrrolidin-1-yl)methyl)-1,7-naphthyridin-8-ylamino)-2′-methylbiphenyl-3-ylcarbamoyl)-1-methyl-6,7-dihydro-1H-imidazo[4,5-c]pyridin-5(4H)-yl)methyl)cyclohexanecarboxylic acid]",≤ 10 nM
3,"Cc1c(Nc2nccc3cc(CN4CC[C@@H](O)C4)cnc23)cccc1-c1cccc(NC(=O)c2nc3c(n2C)CCN(C[C@H]2CC[C@@H](C(=O)O)CC2)C3)c1Cl [Example 48, cis-4-((2-(2-chloro-3′-(3-(((R)-3-hydroxypyrrolidin-1-yl)methyl)-1,7-naphthyridin-8-ylamino)-2′-methylbiphenyl-3-ylcarbamoyl)-1-methyl-6,7-dihydro-1H-imidazo[4,5-c]pyridin-5(4H)-yl)methyl)cyclohexanecarboxylic acid]",≤ 10 nM
4,"Cc1c(Nc2nccc3cc(CN4CCCC4)cnc23)cccc1-c1cccc(NC(=O)c2nc3c(n2C)CCN(C[C@H]2CC[C@@H](C(=O)O)CC2)C3)c1Cl [Example 49, cis-4-((2-(2-chloro-2′-methyl-3′-(3-(pyrrolidin-1-ylmethyl)-1,7-naphthyridin-8-ylamino)biphenyl-3-ylcarbamoyl)-1-methyl-6,7-dihydro-1H-imidazo[4,5-c]pyridin-5(4H)-yl)methyl)cyclohexanecarboxylic acid]",≤ 10 nM
5,"Cc1c(Nc2nccc3cc(CN[C@@H](C)CO)cnc23)cccc1-c1cccc(NC(=O)c2nc3c(n2C)CCN(C[C@H]2CC[C@H](C(=O)O)CC2)C3)c1Cl [Example 50, trans-4-((2-(2-chloro-3′-(3-(((S)-1-hydroxypropan-2-ylamino)methyl)-1,7-naphthyridin-8-ylamino)-2′-methylbiphenyl-3-ylcarbamoyl)-1-methyl-6,7-dihydro-1H-imidazo[4,5-c]pyridin-5(4H)-yl)methyl)cyclohexanecarboxylic acid]",≤ 10 nM
6,"Cc1c(Nc2nccc3cc(CN[C@H]4CCC[C@@H]4O)cnc23)cccc1-c1cccc(NC(=O)c2nc3c(n2C)CCN(C[C@H]2CC[C@H](C(=O)O)CC2)C3)c1Cl [Example 51, trans-4-((2-(2-chloro-3′-(3-(((1S,2S)-2-hydroxycyclopentylamino)methyl)-1,7-naphthyridin-8-ylamino)-2′-methylbiphenyl-3-ylcarbamoyl)-1-methyl-6,7-dihydro-1H-imidazo[4,5-c]pyridin-5(4H)-yl)methyl)cyclohexanecarboxylic acid]",≤ 10 nM
7,"Cc1c(Nc2nccc3cc(CN4CC[C@@H](O)C4)cnc23)cccc1-c1cccc(NC(=O)c2nc3c(n2C)CCN(C(C)CC(=O)O)C3)c1Cl (stereo partly drawn) [Example 54, 3-(2-(2-chloro-3′-(3-(((R)-3-hydroxypyrrolidin-1-yl)methyl)-1,7-naphthyridin-8-ylamino)-2′-methylbiphenyl-3-ylcarbamoyl)-1-methyl-6,7-dihydro-1H-imidazo[4,5-c]pyridin-5(4H)-yl)butanoic acid]",≤ 10 nM
8,"Cc1c(Nc2nccc3cc(CN4CC[C@H](O)C4)cnc23)cccc1-c1cccc(NC(=O)c2nc3c(n2C)CCN(C[C@H]2CC[C@@H](C(=O)O)CC2)C3)c1Cl [Example 55, cis 4-((2-(2-chloro-3′-(3-(((S)-3-hydroxypyrrolidin-1-yl)methyl)-1,7-naphthyridin-8-ylamino)-2′-methylbiphenyl-3-ylcarbamoyl)-1-methyl-6,7-dihydro-1H-imidazo[4,5-c]pyridin-5(4H)-yl)methyl)cyclohexanecarboxylic acid]",≤ 10 nM
9,"Cc1c(Nc2nccc3cc(CN4CC[C@@](C)(O)C4)cnc23)cccc1-c1cccc(NC(=O)c2nc3c(n2C)CCN(C[C@H]2CC[C@@H](C(=O)O)CC2)C3)c1Cl [Example 56, cis 4-((2-(2-chloro-3′-(3-(((R)-3-hydroxy-3-methylpyrrolidin-1-yl)methyl)-1,7-naphthyridin-8-ylamino)-2′-methylbiphenyl-3-ylcarbamoyl)-1-methyl-6,7-dihydro-1H-imidazo[4,5-c]pyridin-5(4H)-yl)methyl)cyclohexanecarboxylic acid]",≤ 10 nM
10,"Cc1c(Nc2nccc3cc(CN4CC[C@@](C)(O)C4)cnc23)cccc1-c1cccc(NC(=O)c2nc3c(n2C)CCN(C2CCC(C(=O)O)CC2)C3)c1Cl (stereo partly drawn) [Example 57, (R)-4-(2-(2-chloro-3′-(3-((3-hydroxy-3-methylpyrrolidin-1-yl)methyl)-1,7-naphthyridin-8-ylamino)-2′-methylbiphenyl-3-ylcarbamoyl)-1-methyl-6,7-dihydro-1H-imidazo[4,5-c]pyridin-5(4H)-yl)cyclohexanecarboxylic acid]",≤ 10 nM
11,"Cc1c(Nc2nccc3cc(CN4CC[C@](C)(O)C4)cnc23)cccc1-c1cccc(NC(=O)c2nc3c(n2C)CCN(C2CCC(C(=O)O)CC2)C3)c1Cl (stereo partly drawn) [Example 58, (S)-4-(2-(2-chloro-3′-(3-((3-hydroxy-3-methylpyrrolidin-1-yl)methyl)-1,7-naphthyridin-8-ylamino)-2′-methylbiphenyl-3-ylcarbamoyl)-1-methyl-6,7-dihydro-1H-imidazo[4,5-c]pyridin-5(4H)-yl)cyclohexanecarboxylic acid]",≤ 10 nM
12,"Cc1c(Nc2nccc3cc(CN[C@H](C)CO)cnc23)cccc1-c1cccc(NC(=O)c2nc3c(n2C)CCN(CC[C@H]2CC[C@H](C(=O)O)CC2)C3)c1Cl [Example 59, trans 4-(2-(2-(2-chloro-3′-(3-(((R)-1-hydroxypropan-2-ylamino)methyl)-1,7-naphthyridin-8-ylamino)-2′-methylbiphenyl-3-ylcarbamoyl)-1-methyl-6,7-dihydro-1H-imidazo[4,5-c]pyridin-5(4H)-yl)ethyl)cyclohexanecarboxylic acid]",≤ 10 nM
13,"Cc1c(Nc2nccc3cc(CN[C@@H](C)CO)cnc23)cccc1-c1cccc(NC(=O)c2nc3c(n2C)CCN(CC[C@H]2CC[C@H](C(=O)O)CC2)C3)c1Cl [Example 60, trans 4-(2-(2-(2-chloro-3′-(3-(((S)-1-hydroxypropan-2-ylamino)methyl)-1,7-naphthyridin-8-ylamino)-2′-methylbiphenyl-3-ylcarbamoyl)-1-methyl-6,7-dihydro-1H-imidazo[4,5-c]pyridin-5(4H)-yl)ethyl)cyclohexanecarboxylic acid]",≤ 10 nM
14,"Cc1c(Nc2nccc3cc(CN4CC[C@@](C)(O)C4)cnc23)cccc1-c1cccc(NC(=O)c2nc3c(n2C)CCN(CC[C@H]2CC[C@H](C(=O)O)CC2)C3)c1Cl [Example 61, trans-4-(2-(2-(2-chloro-3′-(3-(((R)-3-hydroxy-3-methylpyrrolidin-1-yl)methyl)-1,7-naphthyridin-8-ylamino)-2′-methylbiphenyl-3-ylcarbamoyl)-1-methyl-6,7-dihydro-1H-imidazo[4,5-c]pyridin-5(4H)-yl)ethyl)cyclohexanecarboxylic acid]",≤ 10 nM
15,"Cc1c(NC(=O)c2nc3c(n2C)CCN(CC[C@H]2CC[C@H](C(=O)O)CC2)C3)cccc1-c1cccc(Nc2nccc3cc(CN4CC[C@@H](O)C4)cnc23)c1C [Example 63, trans-4-(2-(2-(3′-(3-(((R)-3-hydroxypyrrolidin-1-yl)methyl)-1,7-naphthyridin-8-ylamino)-2,2′-dimethylbiphenyl-3-ylcarbamoyl)-1-methyl-6,7-dihydro-1H-imidazo[4,5-c]pyridin-5(4H)-yl)ethyl)cyclohexanecarboxylic acid]",≤ 10 nM
16,"Cn1c(C(=O)Nc2cccc(-c3cccc(Nc4nccc5cc(CN6CC[C@@H](O)C6)cnc45)c3Cl)c2Cl)nc2c1CCN(CC[C@H]1CC[C@H](C(=O)O)CC1)C2 [Example 65, Trans-4-(2-(2-(2,2′-dichloro-3′-(3-(((R)-3-hydroxypyrrolidin-1-yl)methyl)-1,7-naphthyridin-8-ylamino)biphenyl-3-ylcarbamoyl)-1-methyl-6,7-dihydro-1H-imidazo[4,5-c]pyridin-5(4H)-yl)ethyl)cyclohexanecarboxylic acid]",≤ 10 nM
17,"Cc1c(NC(=O)c2nc3c(n2C)CCN(CC[C@H]2CC[C@H](C(=O)O)CC2)C3)cccc1-c1cccc(Nc2nccc3cc(CN4CC[C@@H](O)C4)cnc23)c1Cl [Example 66, trans 4-(2-(2-(2′-chloro-3′-(3-(((R)-3-hydroxypyrrolidin-1-yl)methyl)-1,7-naphthyridin-8-ylamino)-2-methylbiphenyl-3-ylcarbamoyl)-1-methyl-6,7-dihydro-1H-imidazo[4,5-c]pyridin-5(4H)-yl)ethyl)cyclohexanecarboxylic acid]",≤ 10 nM
18,"Cc1c(Nc2ncnc3cc(CN4CC[C@@](C)(C(=O)O)C4)cnc23)cccc1-c1cccc(NC(=O)c2nc3c(n2C)CCN(C)C3)c1Cl [Example 67, (R)-1-((4-(2′-chloro-3′-(1,5-dimethyl-4,5,6,7-tetrahydro-1H-imidazo[4,5-c]pyridine-2-carboxamido)-2-methylbiphenyl-3-ylamino)pyrido[3,2-d]pyrimidin-7-yl)methyl)-3-methylpyrrolidine-3-carboxylic acid]",≤ 10 nM
